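Following 48 hours of exposure in 96-well plates, responses at five concentrations were used to interpolate endpoints linearly. The concentration for 50% growth inhibition is given as GI50. TGI is the concentration that stops growth completely.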
How the values were obtained:
Assay in all cases: growth of human tumour cells (NCI), 48 h
786-0 renal = test system: 786-0 renal
A498 renal = test system: A498 renal
A549 NSCLC = test system: A549 NSCLC
ACHN renal = test system: ACHN renal
BT-549 breast = test system: BT-549 breast
CAKI-1 renal = test system: CAKI-1 renal
CCRF-CEM leukemia = test system: CCRF-CEM leukemia
COLO 205 colon = test system: COLO 205 colon
DU-145 prostate = test system: DU-145 prostate
EKVX NSCLC = test system: EKVX NSCLC
HCC-2998 colon = test system: HCC-2998 colon
HCT-116 colon = test system: HCT-116 colon
HCT-15 colon = test system: HCT-15 colon
HL-60(TB) leukemia = test system: HL-60(TB) leukemia
HOP-62 NSCLC = test system: HOP-62 NSCLC
HOP-92 NSCLC = test system: HOP-92 NSCLC
HS 578T breast = test system: HS 578T breast
HT29 colon = test system: HT29 colon
IGROV1 ovarian = test system: IGROV1 ovarian
K-562 leukemia = test system: K-562 leukemia
KM12 colon = test system: KM12 colon
LOX IMVI melanoma = test system: LOX IMVI melanoma
M14 melanoma = test system: M14 melanoma
MALME-3M melanoma = test system: MALME-3M melanoma
MCF7 breast = test system: MCF7 breast
MDA-MB-231 breast = test system: MDA-MB-231 breast
MDA-MB-435 = test system: MDA-MB-435
MOLT-4 leukemia = test system: MOLT-4 leukemia
NCI-H226 lung = test system: NCI-H226 lung
NCI-H23 lung = test system: NCI-H23 lung
NCI-H460 lung = test system: NCI-H460 lung
NCI/ADR-RES ovarian = test system: NCI/ADR-RES ovarian
OVCAR-3 ovarian = test system: OVCAR-3 ovarian
OVCAR-4 ovarian = test system: OVCAR-4 ovarian
OVCAR-5 ovarian = test system: OVCAR-5 ovarian
OVCAR-8 ovarian = test system: OVCAR-8 ovarian
PC-3 prostate = test system: PC-3 prostate
RPMI-8226 leukemia = test system: RPMI-8226 leukemia
RXF 393 renal = test system: RXF 393 renal
SF-268 CNS = test system: SF-268 CNS
SF-295 CNS = test system: SF-295 CNS
SF-539 CNS = test system: SF-539 CNS
SK-MEL-2 melanoma = test system: SK-MEL-2 melanoma
SK-MEL-28 melanoma = test system: SK-MEL-28 melanoma
SK-MEL-5 melanoma = test system: SK-MEL-5 melanoma
SK-OV-3 ovarian = test system: SK-OV-3 ovarian
SN12C renal = test system: SN12C renal
SNB-19 CNS = test system: SNB-19 CNS
SNB-75 CNS = test system: SNB-75 CNS
SR leukemia = test system: SR leukemia
SW-620 colon = test system: SW-620 colon
T-47D breast = test system: T-47D breast
TK-10 renal = test system: TK-10 renal
U251 CNS = test system: U251 CNS
UACC-62 melanoma = test system: UACC-62 melanoma
UO-31 renal = test system: UO-31 renal

CCN(CC)c1ccc(-c2cc(-c3cc(OC)c(OC)c(OC)c3)nc(N3CCC(O)CC3)c2C#N)cc1
GI50 (786-0 renal): 337 nM | TGI (786-0 renal): 20300 nM | GI50 (A498 renal): 1070 nM | TGI (A498 renal): 14200 nM | GI50 (A549 NSCLC): 326 nM | GI50 (ACHN renal): 406 nM | TGI (ACHN renal): > 42500 nM | GI50 (BT-549 breast): 911 nM | TGI (BT-549 breast): 3890 nM | GI50 (CAKI-1 renal): 33.4 nM | TGI (CAKI-1 renal): 708 nM | GI50 (CCRF-CEM leukemia): 600 nM | TGI (CCRF-CEM leukemia): > 100000 nM | GI50 (COLO 205 colon): 488 nM | TGI (COLO 205 colon): 2110 nM | GI50 (DU-145 prostate): 877 nM | TGI (DU-145 prostate): 14600 nM | GI50 (EKVX NSCLC): 613 nM | TGI (EKVX NSCLC): > 100000 nM | GI50 (HCC-2998 colon): 374 nM | TGI (HCC-2998 colon): 2130 nM | GI50 (HCT-116 colon): 281 nM | TGI (HCT-116 colon): 1710 nM | GI50 (HCT-15 colon): 260 nM | TGI (HCT-15 colon): 1930 nM | GI50 (HL-60(TB) leukemia): 497 nM | TGI (HL-60(TB) leukemia): 2330 nM | GI50 (HOP-62 NSCLC): 1010 nM | TGI (HOP-62 NSCLC): 11900 nM | GI50 (HOP-92 NSCLC): 215 nM | TGI (HOP-92 NSCLC): 689 nM | GI50 (HS 578T breast): 3940 nM | TGI (HS 578T breast): > 100000 nM | GI50 (HT29 colon): 277 nM | TGI (HT29 colon): 1280 nM | GI50 (IGROV1 ovarian): 373 nM | TGI (IGROV1 ovarian): > 27700 nM | GI50 (K-562 leukemia): 353 nM | TGI (K-562 leukemia): 2130 nM | GI50 (KM12 colon): 512 nM | TGI (KM12 colon): 2980 nM | GI50 (LOX IMVI melanoma): 41.9 nM | TGI (LOX IMVI melanoma): 172 nM | GI50 (M14 melanoma): 262 nM | TGI (M14 melanoma): 799 nM | GI50 (MALME-3M melanoma): 303 nM | TGI (MALME-3M melanoma): 1180 nM | GI50 (MCF7 breast): 628 nM | GI50 (MDA-MB-231 breast): 214 nM | TGI (MDA-MB-231 breast): 1770 nM | GI50 (MDA-MB-435): 272 nM | TGI (MDA-MB-435): 1120 nM | GI50 (MOLT-4 leukemia): 621 nM | TGI (MOLT-4 leukemia): 5170 nM | GI50 (NCI-H226 lung): 756 nM | TGI (NCI-H226 lung): 5770 nM | GI50 (NCI-H23 lung): 870 nM | TGI (NCI-H23 lung): 4680 nM | GI50 (NCI-H460 lung): 245 nM | TGI (NCI-H460 lung): 1620 nM | GI50 (NCI/ADR-RES ovarian): 272 nM | TGI (NCI/ADR-RES ovarian): 5950 nM | GI50 (OVCAR-3 ovarian): 1170 nM | TGI (OVCAR-3 ovarian): 3020 nM | GI50 (OVCAR-4 ovarian): 789 nM | TGI (OVCAR-4 ovarian): > 100000 nM | GI50 (OVCAR-5 ovarian): 469 nM | TGI (OVCAR-5 ovarian): > 21800 nM | GI50 (OVCAR-8 ovarian): 441 nM | TGI (OVCAR-8 ovarian): 7440 nM | GI50 (PC-3 prostate): 713 nM | TGI (PC-3 prostate): > 100000 nM | GI50 (RPMI-8226 leukemia): 232 nM | TGI (RPMI-8226 leukemia): 4780 nM | GI50 (RXF 393 renal): 193 nM | TGI (RXF 393 renal): 2930 nM | GI50 (SF-268 CNS): 988 nM | TGI (SF-268 CNS): 3130 nM | GI50 (SF-295 CNS): 169 nM | TGI (SF-295 CNS): 435 nM | GI50 (SF-539 CNS): 554 nM | TGI (SF-539 CNS): 2470 nM | GI50 (SK-MEL-2 melanoma): 289 nM | TGI (SK-MEL-2 melanoma): 889 nM | GI50 (SK-MEL-28 melanoma): 879 nM | TGI (SK-MEL-28 melanoma): 3760 nM | GI50 (SK-MEL-5 melanoma): 156 nM | TGI (SK-MEL-5 melanoma): 365 nM | GI50 (SK-OV-3 ovarian): 1800 nM | TGI (SK-OV-3 ovarian): > 31600 nM | GI50 (SN12C renal): 626 nM | TGI (SN12C renal): 3190 nM | GI50 (SNB-19 CNS): 1720 nM | TGI (SNB-19 CNS): 7420 nM | GI50 (SNB-75 CNS): 321 nM | TGI (SNB-75 CNS): 3040 nM | GI50 (SR leukemia): 399 nM | TGI (SR leukemia): 2610 nM | GI50 (SW-620 colon): 448 nM | TGI (SW-620 colon): 12700 nM | GI50 (T-47D breast): 495 nM | TGI (T-47D breast): 3800 nM | GI50 (TK-10 renal): 1100 nM | TGI (TK-10 renal): 6920 nM | GI50 (U251 CNS): 398 nM | TGI (U251 CNS): 1800 nM | GI50 (UACC-62 melanoma): 264 nM | TGI (UACC-62 melanoma): 662 nM | GI50 (UO-31 renal): 274 nM | TGI (UO-31 renal): 1820 nM
